Measurements reported in ChEMBL document CHEMBL1132343, “Carboxylic acid analogues of tamoxifen: (Z)-2-[p-(1, 2-diphenyl-1-butenyl)phenoxy]-N,N-dimethylethylamine. Estrogen receptor affinity and estrogen antagonist effects in MCF-7 cells” (J Med Chem, 1999).

Tests used:
MCF7 [1] = test: Inhibition of MCF-7 cell proliferation at 10000 nM; format: functional, Homo sapiens
Estrogen receptor = molecular target: T1, Estrogen receptor (Homo sapiens, UniProt P03372)
T1 sequence (P03372 whole entry): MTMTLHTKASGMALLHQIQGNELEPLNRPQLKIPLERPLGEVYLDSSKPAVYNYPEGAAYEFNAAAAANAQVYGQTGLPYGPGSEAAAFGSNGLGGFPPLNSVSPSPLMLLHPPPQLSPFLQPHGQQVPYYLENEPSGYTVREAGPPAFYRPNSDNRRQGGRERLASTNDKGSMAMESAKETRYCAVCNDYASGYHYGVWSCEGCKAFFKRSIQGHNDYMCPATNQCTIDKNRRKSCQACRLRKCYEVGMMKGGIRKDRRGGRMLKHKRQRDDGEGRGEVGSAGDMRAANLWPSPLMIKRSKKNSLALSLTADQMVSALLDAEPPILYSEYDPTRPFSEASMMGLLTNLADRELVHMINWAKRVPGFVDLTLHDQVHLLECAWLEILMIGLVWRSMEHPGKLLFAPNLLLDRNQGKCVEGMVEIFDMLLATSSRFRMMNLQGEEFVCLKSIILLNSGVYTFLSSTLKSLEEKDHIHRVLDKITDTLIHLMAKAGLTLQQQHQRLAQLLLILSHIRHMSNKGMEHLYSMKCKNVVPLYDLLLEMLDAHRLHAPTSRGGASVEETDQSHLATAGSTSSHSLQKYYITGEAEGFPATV
Description: Displacement of [3H]17-beta-estradiol from human estrogen receptor alpha

MCF7 [2] = test: Inhibition of MCF-7 cell proliferation at 10 nM; format: functional, Homo sapiens
MCF7 [3] = test: Inhibition of MCF-7 cell proliferation at 100 nM; format: functional, Homo sapiens
MCF7 [4] = test: Inhibition of estrogen-induced MCF-7 cell proliferation at 10000 nM; format: functional, Homo sapiens
MCF7 [5] = test: Inhibition of MCF-7 cell proliferation at 1000 nM; format: functional, Homo sapiens

For `CC/C(=C(/c1ccc(O)cc1)c1cccc(OCC(=O)O)c1)c1ccccc1`, which Cell number (MCF7 [1]) is on record?
The Cell number was 100%.

What about the IC50 (Estrogen receptor) of the same compound?
Its IC50 is greater than 11 nM.

How did the Cell number (MCF7 [2]) turn out when `O=C(O)CCCOc1ccc(/C(=C/CCc2ccccc2)c2cccc(O)c2)cc1` was run?
Its Cell number is 89%.

And the Cell number (MCF7 [1])?
The Cell number was 19%.

What about the Cell number (MCF7 [3]) of the same compound?
Its Cell number is 91%.

What about the Cell number (MCF7 [4]) of the same compound?
The Cell number was 50%.

And the IC50 (Estrogen receptor)?
Its IC50 is 1700 nM.

With `O=C(O)CCCOc1ccc(/C(=C/CCc2ccccc2)c2ccc(O)cc2)cc1` as the compound, how does the Cell number (MCF7 [5]) read?
The Cell number was 20%.

What about the Cell number (MCF7 [2]) of the same compound?
Its Cell number is 74%.

What about the Cell number (MCF7 [3]) of the same compound?
Its Cell number is 25%.

What about the Cell number (MCF7 [4]) of the same compound?
Its Cell number is 18%.

And the IC50 (Estrogen receptor)?
Its IC50 is 235 nM.

`CC/C(=C(\c1ccccc1)c1ccc(OCCN(C)C)cc1)c1ccccc1` [TAMOXIFEN] was tested. Which Cell number (MCF7 [2]) did it give?
Its Cell number is 97%.

And the Cell number (MCF7 [1])?
The Cell number was 24%.

What about the Cell number (MCF7 [3]) of the same compound?
The Cell number was 72%.

And the Cell number (MCF7 [4])?
The Cell number was 31%.

`CC/C(=C(/c1ccc(OCC(=O)O)cc1)c1cccc(O)c1)c1ccccc1` was tested. Which Cell number (MCF7 [2]) did it give?
Its Cell number is 99%.

And the Cell number (MCF7 [1])?
The Cell number was 52%.

What about the Cell number (MCF7 [3]) of the same compound?
Its Cell number is 82%.

And the Cell number (MCF7 [4])?
The Cell number was 78%.

What about the IC50 (Estrogen receptor) of the same compound?
Its IC50 is 1440 nM.

How did the Cell number (MCF7 [5]) turn out when `CC/C(=C(\c1ccc(O)cc1)c1ccc(OCC(=O)O)cc1)c1ccccc1` was run?
Its Cell number is 96%.

What about the Cell number (MCF7 [1]) of the same compound?
The Cell number was 102%.

And the IC50 (Estrogen receptor)?
The IC50 was 500 nM.

What does the source list for `CC[C@](C)(c1ccccc1)[C@@H](c1ccc(O)cc1)c1ccc(OCCCC(=O)O)cc1`?
Cell number (MCF7 [5]): 102%; Cell number (MCF7 [1]): 68%; Cell number (MCF7 [3]): 99%; IC50 (Estrogen receptor): 6000 nM
